According to paper PMC10945739, “Exploring Cassia mimosoïdes as a promising natural source of steroids with potent anti-cancer, urease inhibition, and antimicrobial properties” (RSC Advances, 2024):
≈ marks a conversion by molar mass, not a printed value.

How the values were obtained:
[1] = test system: Alternaria alternata; assay: Antifungal bioassay, poisoned medium technique; format: cell-based; details: 168 h, poisoned medium, 25 ± 2 °C, seven days, read-out: MIC values against Alternaria alternata
Protocol: (§1) Anti-microbial assays of the isolated componds were performed against the selected strain of fungi i.e., Alternaria alternata, Aspergillus fumigatus, Aspergillus niger, and Penicillium citrii.
(§2) Alternaria alternata, Aspergillus fumigatus, Aspergillus niger, and Penicillium citrii strains were obtained from the Biotechnology lab at COMSATS University Islamabad. The antifungal activity of isolated compounds was assessed using poisoned medium technique. Two percent malt extract agar medium was generated by autoclaving at 121 °C for 30 minutes. Weighed volumes of the compounds were dissolved in […] of sterilized distilled water and put to flasks containing 59.5 mL of malt extract agar medium while they were still molten to obtain final concentrations of 100, 300, 500, 700, 900, and 1000 ppm. The control received the same amount of distilled water. Each sterile Petri plate with a diameter of 90 mm was filled with 20 mL of each medium and allowed to solidify. 5 mm diameter mycelial discs were produced from the tips of 5–7 day-old cultures of the four test fungus species and put in the center of each Petri dish using a sterile cork borer. Every treatment was duplicated three times. Plates were cultured in an incubator at 25 ± 2 °C for seven days. To calculate the rate of fungal growth, the three diameters of each colony were measured at right angles and averaged. Table 2 MIC values (μM) of the isolated compounds against Alternaria alternata, Aspergillus fumigatus, Aspergillus niger, and Penicillium citrii strains.[19]

[2] = test system: Aspergillus fumigatus; assay: Antifungal bioassay, poisoned medium technique; format: cell-based; details: 168 h, poisoned medium, 25 ± 2 °C, seven days, read-out: MIC values against Aspergillus fumigatus
Protocol: as §1, §2

[3] = test system: Aspergillus niger; assay: Antifungal bioassay, poisoned medium technique; format: cell-based; details: 168 h, poisoned medium, 25 ± 2 °C, seven days, read-out: MIC values against Aspergillus niger
Protocol: as §1, §2

[4] = test system: Penicillium citrii; assay: Antifungal bioassay, poisoned medium technique; format: cell-based; details: 168 h, poisoned medium, 25 ± 2 °C, seven days, read-out: MIC values against Penicillium citrii
Protocol: as §1, §2

[5] = biological target: Jack bean urease (Canavalia ensiformis, UniProt P07374); assay: biochemical; format: biochemical; details: for inhibition at 500 µM: pH 6.8, read-out: % Inhibition of urease
Sequence of Jack bean urease (P07374 whole entry, looked up): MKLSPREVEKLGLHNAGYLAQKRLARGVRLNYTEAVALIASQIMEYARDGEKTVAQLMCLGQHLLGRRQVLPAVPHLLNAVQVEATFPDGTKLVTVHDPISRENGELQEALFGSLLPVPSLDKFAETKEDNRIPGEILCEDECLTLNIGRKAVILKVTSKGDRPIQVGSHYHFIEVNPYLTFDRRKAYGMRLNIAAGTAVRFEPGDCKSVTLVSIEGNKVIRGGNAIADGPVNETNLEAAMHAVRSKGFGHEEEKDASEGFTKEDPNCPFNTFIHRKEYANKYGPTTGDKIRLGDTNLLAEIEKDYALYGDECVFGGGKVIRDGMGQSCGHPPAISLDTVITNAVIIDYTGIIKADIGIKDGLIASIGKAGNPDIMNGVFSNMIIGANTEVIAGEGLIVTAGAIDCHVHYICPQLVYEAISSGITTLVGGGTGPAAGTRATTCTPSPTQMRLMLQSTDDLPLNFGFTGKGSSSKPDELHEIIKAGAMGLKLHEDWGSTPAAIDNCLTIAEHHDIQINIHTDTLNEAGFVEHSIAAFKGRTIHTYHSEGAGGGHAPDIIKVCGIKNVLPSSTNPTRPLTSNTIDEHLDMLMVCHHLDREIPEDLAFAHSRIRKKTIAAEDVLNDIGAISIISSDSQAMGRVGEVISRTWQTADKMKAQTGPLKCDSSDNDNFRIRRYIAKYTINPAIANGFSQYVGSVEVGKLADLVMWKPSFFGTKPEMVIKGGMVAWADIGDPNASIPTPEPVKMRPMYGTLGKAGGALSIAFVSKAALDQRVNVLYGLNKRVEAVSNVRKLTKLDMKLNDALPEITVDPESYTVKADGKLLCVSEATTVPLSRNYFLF
Protocol: The inhibition potential of the isolated compounds against urease was investigated using a SpectraMax M2 reader using 96-well microplates.
The kinetic assay involved preparing varying concentrations of both the test compound and the substrate (urea), spanning 0 μM, 5 μM, 10 μM, 15 μM, and 20 μM. The resulting data was utilized to construct a Lineweaver–Burk plot.
In 96-well plates were incubated at 37 °C for 15 min, reaction mixtures consisting of 25 μL of test compounds (each 0.5 mM), 25 μL of enzyme solution (Jack bean urease) and 55 μL of buffers containing 20.79 mM urea. The indophenol method described by Weatherburn[21] was used to determine urease inhibitor activity by measuring ammonia production. Briefly, to each well were added 70 μL of alkaline reagent (0.5% w/v NaOH and 0.1% active chloride, NaOCl) and 45 μL of phenolic reagent (1% w/v phenol and 0.005% w/v sodium nitroprusside). The microplate reader (Molecular Devices, USA) was used to measure the increase in absorbance at 650 nm after 50 min. A final volume of 245 μL was required to perform all reactions in a triplicate. The results (absorbance change per minute) were processed using SoftMax Pro software (Molecular Devices, USA). All assays were performed at pH 6.8. Inhibition percentages were calculated from the formula% Inhibition = 100 − (Abs(sample)/Abs(control)) × 100where “A” is the absorbance of the “test well” as well as the “control”. Thiourea was used as a standard.

[6] = test system: human HepG2 hepatic cancer cells; assay: MTT cell viability assay; format: cell-based; details: Homo sapiens; for viability at 200 µg: HepG2, 48 h; for IC50: HepG2, calculated using Graph Pad Prism software, read-out: IC50 against HepG2
Protocol: The human liver cells were cultivated in Dulbecco's modified Eagle medium (DMEM) in which 100 U mL^−1 penicillin, 10% fetal bovine and […] streptomycin were added and kept at 37 °C in a […] carbon dioxide induced humidified environment. The human liver cells prepared as per above procedure were then treated with synthesized compounds diluted to 0.05% DMSO concentration.
Using MTT assay, the % viability of cancer cells 36 was evaluated. According to the standard procedure, HepG2 cells were treated with various dosages of synthesized compounds for 48 hours each. The cells were then incubated for 4 hours at 37 °C with 10μ MTT reagent (5 mg mL^−1). Next, in 150 μL DMSO was added to dissolve formazan crystals. The λmax was recorded at 409 nm in a microplate reader (thermos scientific).

[7] = HepG2, MTT, 48 hours, at 200 μg

Row | Structure (SMILES) | MIC [1] [µM] | MIC [2] [µM] | MIC [3] [µM] | MIC [4] [µM] | IC50 [5] [µM] | inhibition at 500 µM [5] [%] | viability at 200 µg [6, 7] [%] | viability at 200 µg [6] [%] | IC50 [6] [µM]
1 | O=c1cc(-c2ccc(O)c(O)c2)oc2cc(O)cc(O)c12 [Compound 2, Luteolin] | 0.043 ± 0.002 (≈ 0.0123 µg/mL) | 0.01 ± 0.004 (≈ 0.00286 µg/mL) | 0.021 ± 0.001 (≈ 0.00601 µg/mL) | 0.05 ± 0.002 (≈ 0.0143 µg/mL) | 1.3 ± 0.28 | 82 | 82.5 ± 4.31 | – | –
2 | CC[C@H](CC[C@@H](C)[C@H]1CC[C@H]2[C@@H]3CC=C4C[C@@H](O)CC[C@]4(C)[C@H]3CC[C@]12C)C(C)C [Compound 15, β-Sitosterol] | – | – | – | – | 2.78 ± 0.24 | 80 | – | 94.4 ± 4.42 | –
3 | CC[C@H](CC[C@@H](C)[C@H]1CC[C@H]2[C@@H]3C[C@H](O)C4=C[C@@H](O)CC[C@]4(C)[C@H]3CC[C@]12C)C(C)C [Stigmast-4-en-3β,6α-diol] | 0.045 ± 0.003 (≈ 0.0194 µg/mL) | 0.01 ± 0.006 (≈ 0.00431 µg/mL) | 0.015 ± 0.005 (≈ 0.00646 µg/mL) | 0.2 ± 0.03 (≈ 0.0861 µg/mL) | – | – | – | – | –
4 | CC[C@H](CC[C@@H](C)[C@H]1CC[C@H]2[C@@H]3C[C@H](O)C4=C[C@@H](O)CC[C@]4(C)[C@H]3CC[C@]12C)C(C)C [Compound 10, Stigmast-4-en-3β,6α-diol] | – | – | – | – | 6.68 ± 0.11 | 76.6 | 14.5 ± 0.68 | – | 7.8
5 | CC[C@H](CC[C@@H](C)[C@H]1CC[C@H]2[C@@H]3CC(=O)C4=CC(=O)CC[C@]4(C)[C@H]3CC[C@]12C)C(C)C [Compound 9, Stigmast-4-en-3,6-dione] | – | – | – | – | – | 13.4 | – | – | 7.8
6 | Cc1cc(O)c2c(c1)C(=O)c1cccc(O)c1C2=O [Chrysophanol] | 0.012 ± 0.003 (≈ 0.00305 µg/mL) | 0.06 ± 0.001 (≈ 0.0153 µg/mL) | 0.03 ± 0.002 (≈ 0.00763 µg/mL) | 0.05 ± 0.001 (≈ 0.0127 µg/mL) | – | – | – | – | –
7 | Cc1cc(O)c2c(c1)C(=O)c1cc(O)cc(O)c1C2=O [Compound 11, Emodin] | – | – | – | – | 5.2 ± 0.14 | 72.9 | 83.89 ± 0.73 | – | –
8 | Cc1cc(O)c2c(c1)C(=O)c1cc(O)cc(O)c1C2=O [Emodin] | 0.01 ± 0.006 (≈ 0.0027 µg/mL) | 0.035 ± 0.005 (≈ 0.00946 µg/mL) | 0.04 ± 0.003 (≈ 0.0108 µg/mL) | 0.045 ± 0.005 (≈ 0.0122 µg/mL) | – | – | – | – | –
9 | CCCCCCCCCCCCCCCCCCC(=O)O [Compound 14, Nonadecanoic acid] | – | – | – | – | 1.95 ± 0.31 | 80.4 | – | – | –
10 | COc1cc(O)c2c(c1)C(=O)c1cc(C)cc(O)c1C2=O [Physcion] | 0.015 ± 0.005 (≈ 0.00426 µg/mL) | 0.035 ± 0.006 (≈ 0.00995 µg/mL) | 0.09 ± 0.009 (≈ 0.0256 µg/mL) | 0.03 ± 0.005 (≈ 0.00853 µg/mL) | – | – | – | – | –
11 | O=c1cc(-c2ccc(O)c(O)c2)oc2cc(O)c([C@@H]3O[C@H](CO)[C@@H](O)[C@H](O)[C@H]3O)c(O)c12 [Luteolin-6-C-β-D-glucopyranoside] | 0.06 ± 0.007 (≈ 0.0269 µg/mL) | 0.25 ± 0.003 (≈ 0.112 µg/mL) | 0.0072 ± 0.0003 (≈ 0.00323 µg/mL) | 0.022 ± 0.003 (≈ 0.00986 µg/mL) | – | – | – | – | –
12 | CCC(CCC(C)C1CCC2C3CC(=O)C4=CC(=O)CCC4(C)C3CCC12C)C(C)C (stereo not drawn) [Stigmast-4-en-3,6-dione] | 0.15 ± 0.005 (≈ 0.064 µg/mL) | 0.125 ± 0.0015 (≈ 0.0533 µg/mL) | 0.02 ± 0.006 (≈ 0.00853 µg/mL) | 0.04 ± 0.003 (≈ 0.0171 µg/mL) | – | – | – | – | –
